Reference: patent publication US20230158015A1, “DRUG COMBINATIONS FOR INHIBITING INFLAMMATION AND SRC KINASE ACTIVATION FOLLOWING INVASIVE SURGICAL PROCEDURES” (SINTETICA S.A., priority 2020, published 2023)
Like-named read-outs stand apart in the source and are kept apart here.

Columns and labels:
p-Src / total Src [1] = format: cell-based, mouse
Protocol: On day 1, mouse KPC-105 cells were cultured until 300,000 cells per well in a 6 well plate were obtained. On day 2, the cells were treated with 0, 0.5, 1,5, 10, 15, 30, 50 and 100 µM lidocaine for 30 minutes. Plates were then collected and washed with phosphate buffered saline and stored at -80° C. Cells were subsequently lysed with 100 µl of radioimmunoprecipitation assay buffer with protease and phosphatase buffers.
Protein estimation was done using a Bradford assay under the following conditions: • A Western Blot was stripped with 6 M guanidine hydrochloride after p-Src protein blocking to probe with total Src protein. • 10% SDS-PAGE 10 well Blocking: 5% bovine serum albumin for p-Src blot. • P-Src-Tyr416 (GeneTex GTX81151) Rb: 1:1000 in 5% bovine serum albumin, Overnight. • Total Src (Cell Signaling Technology 2108S ) Rb mAb 1:1000 overnight in 5% milk. • GAPDH (Invitrogen# AM4300) : 1:5000 in 5% milk overnight. • Wash: 4x for 5 minutes each with 1x TBST. • Developed using 50% femto for the p-Src protein and homemade ECL substrate for total Src and GAPDH protein.
Example 4 evaluated endogenous Src and p-Src in 10 µM lidocaine treated mouse KPC-105 cells at different time points.
Example 5 evaluated endogenous Src and p-Src in mouse KPC-105 cells treated with 10 10 µM lidocaine for different time points, and increasing doses of methylnaltrexone after one hour of incubation. Western Blot banding patterns were generated using 15 µg /lane (NP40 lysates) 10% SDS PAGE over a 6-hour duration (lidocaine) and a 1-hour duration (methylnaltrexone).
• P-Src-Tyr416 (GeneTex # GTX81151) Rb: 1:1000 in 5% bovine serum albumin o/n at 4° C. • 10 µg /lane (NP40 lysates) 10% SDS PAGE • Total Src (CST # 2108S ) Rb mAb 1:1000 in 5% bovine serum albumin o/n at 4° C.
• P-Src-Tyr416 (GeneTex # GTX81151) Rb: 1:1000 in 5% bovine serum albumin 3 hours at room temperature • 10 µg /lane (NP40 lysates) 10% SDS PAGE • Total Src (CST # 2108S ) Rb mAb 1:1000 in 5% bovine serum albumin 3 hours at room temperature
• P-Src-Tyr416 (GeneTex # GTX81151) 1:2000 in 5% bovine serum albumin, o/n at 4° C. • Total Src (CST # 2108S ) 1:3000 in 5% bovine serum albumin, o/n at 4° C. • Vinculin (ProteinTech) 1:4000 in 5% milk o/n at 4° C.
• P-Src-Tyr416 (GeneTex # GTX81151) 1:2000 in 5% bovine serum albumin, o/n at 4C • Total Src (CST # 2108S ) 1:3000 in 5% bovine serum albumin, o/n at 4C

p-Src / total Src [2] = assay: Total Src and p-Src expression in AsPc 1 human pancreatic cancer cell line (Western blot); format: cell-based; conditions: 10 µM lidocaine, 100 nM methylnaltrexone or both, one hour
Protocol: (§1) Example 10 evaluated the effect of 10 µM lidocaine (L), 100 nM methylnaltrexone (M) and the combination of 10 µM lidocaine + 100 nM methylnaltrexone (L+M) for 1 hour on total Src and p-Src expression in a human pancreatic cancer cell line (AsPc 1).
(§2) • P-Src-Tyr416 (GeneTex # GTX81151) 1:2000 in 5% bovine serum albumin, at room temperature, 4 hours • Total Src (CST # 2108S) 1:3000 in 5% bovine serum albumin, at room temperature, 4 hours

p-Src / total Src [3] = assay: Total Src and p-Src expression in MiaPaCa 2 human pancreatic cancer cell line (Western blot); format: cell-based; conditions: 10 µM lidocaine, 100 nM methylnaltrexone or both, one hour
Protocol: as §2
as §1, with “Example 11” for “Example 10”, “line (MiaPaCa 2). Experimental conditions were identical to Example 10.” for “line (AsPc 1).”

p-Src / total Src [4] = assay: Total Src and p-Src expression in Panc1 human pancreatic cancer cell line (Western blot); format: cell-based; conditions: 10 µM lidocaine, 100 nM methylnaltrexone or both, time points up to 6 hours, fresh media
Protocol: as §2
Example 12 evaluated the effect of 10 µM lidocaine (L), 100 nM methylnaltrexone (M) and the combination of 10 µM lidocaine + 100 nM methylnaltrexone (L+M) on total Src and p-Src expression in a human pancreatic cancer cell line (Panc1) at multiple time points up to 6 hours, in fresh media. Experimental conditions were identical to Example 10.

[5] = test system: LPS-challenged C57BL/6 mice; assay: LPS-induced inflammation model, H&E histopathology of lungs and spleen; format: in vivo, mouse
Protocol: (§3) C57BL/6J mice (6-8 weeks) were purchased from Charles River Laboratories (USA) and acclimatized for at least 1 week before use. All mice were housed in a pathogen-free facility. The mice received LPS for 24 hours. Following 24 hours, mice were treated either with lidocaine alone or methylnaltrexone alone or a combination of both, as shown in Table 1.
(§4) At the conclusion of the study, the blood and tissue samples were collected for further study. The serum was used to determine pro-inflammatory cytokines using the LEGENDplex™ mouse inflammation panel (BioLegend, USA) kit followed by flow cytometry. The lungs and spleen tissue samples were used for hematoxylin and eosin (H&E) staining and immunohistochemical analyses for immune cells, including macrophages and natural killer (NK) cells, B cells, T cells, and its subsets. For histopathology and immunohistochemistry (IHC), tissue samples were prepared by cutting 4-µm sections from the paraffin blocks. IHC staining was performed by methods described earlier. The images were captured using bright field microscopy (Nikon Microscope). Two independent investigators evaluated the H&E and all immunohistochemical staining. For slide scoring, each investigator assessed the tissues and gave a score of 0 (no expression) to 4+ (strong uniform expression) as described previously. The data were expressed either as the mean ± SD or mean ± SEM by using Graph Pad Prism software.

[6] = test system: immune cells in lungs and spleen of LPS-challenged mice; assay: LPS-induced inflammation model, IHC staining of immune cells in lungs and spleen; format: in vivo, mouse; conditions: lungs and spleen sections
Protocol: as §3
as §4, with “The data were expressed either as the mean ± SD or mean ± SEM by using Graph Pad Prism software.” left out

[7] = test system: Src phosphorylation at tyrosine 419; conditions: cited from earlier work
[8] = Example 4, 10 µM lidocaine, different time points
[9] = Example 8, 10 µM lidocaine, 100 nM methylnaltrexone or both, different time points

CCN(CC)CC(=O)Nc1c(C)cccc1C [lidocaine, 2-diethylaminoaceto-2′,6′-xylidide]
dose from which the level of p-Src protein is reduced (p-Src / total Src [1]; Example 3, 30 minutes of treatment, 0-100 µM tested): ≥ 10 µM
Src phosphorylation (p-Src) (p-Src / total Src [1]; [8]): attenuated Src phosphorylation after 15 minutes and up to 6 hours
total Src (p-Src / total Src [1]; [8]): not affected
total Src (p-Src / total Src [1]; Example 5, 10 µM lidocaine over 6 hours, increasing doses of methylnaltrexone, 1 hour): not affected
Src phosphorylation (p-Src) (p-Src / total Src [1]; Example 5, 10 µM lidocaine, different time points, inconsistent banding pattern): attenuated Src phosphorylation at 30 minutes, 1 hour, 2 hours, and 6 hours
phosphorylation of Src (p-Src / total Src [1]; [9]): attenuated phosphorylation of Src after 1 hour of exposure
total Src (p-Src / total Src [1]; [9]): decreased total Src after 1 hours of exposure
p-Src activity (p-Src / total Src [2]): attenuated p-Src activity
p-Src (p-Src / total Src [3]): attenuated p-Src
p-Src (p-Src / total Src [4]): inconsistent effects on decreases in p-Src
H&E staining, histopathology of lungs ([5]; LPS challenged mice, lungs): perivascular edema and accumulation of mixed cell infiltration within blood, and lymphatic vessels
histological examination of spleen ([5]; LPS challenged mice, spleen): increased number of erythrocytes in the red pulp, along with mild edema
LPS-induced inflammation (overall conclusion) ([5]; mouse model, drug alone): partially mitigate
F4/80 positive area (macrophages) [6]: partially decreased
decrease in TNF-α-induced Src phosphorylation ([7]; co-incubation with TNF-α and 10 µM lidocaine, p=0.012): 73%
decrease in Src phosphorylation at tyrosine 419 ([7]; lidocaine 1 nm-100 µM, 20 minutes, Kruskal-Wallis p=0.146): did not reach statistical significance
